How the values were obtained:
[1] = test system: paclitaxel induced peripheral neuropathy; assay: Reversal of allodynia induced by paclitaxel in mice (s.c. or p.o., von Frey frequency method); assay type: in vivo, c57bl/6 mice; conditions: Mus musculus; for inhibition in vivo at 1 mg/kg: sc, 0.5 h, 1 mg/kg s.c., tested 30 min after dosing, read-out: Screen @ 1 mg/kg sc (% MPE); for inhibition in vivo at 3 mg/kg: po, 1 h, 3 mg/kg p.o., tested 60 min after dosing, read-out: Screen @ 3 mg/kg po (% MPE)
Experimental: Compounds were tested for efficacy in mouse models of chemotherapy induced peripheral neuropathy. […] For these studies […]/6 mice are habituated to the test environment and baseline measurements of pain sensitivity are assessed. To determine mechanical responses, the threshold for responses to punctate mechanical stimuli (mechanical hyperalgesia) was tested according to the frequency method. In brief, the plantar surface of the animal hindpaw was stimulated with a single von Frey monofilament (0.4 g) for approximately 1-2 seconds. If there was a withdrawal response, it was recorded as a positive response. A response was defined as a lifting or shaking of the paw upon stimulation. This was repeated ten times for each mouse. The final measurement for each mouse is the % non-response to stimulation for the ten trials. The % non-response to stimulation is converted to a % MPE. For paclitaxel induced peripheral neuropathy, a series of injections of PAC (6 mg/kg, i.p.) on days 1, 3, 5 and 7 is used to induce peripheral neuropathy. After approximately 14 days from the initiation of PAC injections, animals are re-assessed for mechanical sensitivity. […] On test day animals are dosed with compounds either subcutaneously or orally and tested for mechanical response by the frequency method either 30 min (s.c.) or 60 min (p.o.) after drug administration. Data is presented as a % MPE. For oxaliplatin induced peripheral neuropathy, a series of injections of OXA (4 mg/kg, i.p.) on days 1-5 is used to induce peripheral neuropathy. After approximately 14 days from the initiation of PAC injections, animals are re-assessed for mechanical sensitivity. […] On test day animals are dosed with compounds subcutaneously and tested for mechanical response by the frequency method 30 min after drug administration. Data is presented as a % MPE. One or more of the compounds show reversal of chemotherapeutic induced peripheral neuropathy.

[2] = molecular target: T1, human sphingosine-1-phosphate receptor 1 (S1P1) (Homo sapiens (Human), UniProt P21453); assay: β-Arrestin2 recruitment assay (PathHunter), S1P1 CHO-K1 cells; assay type: cell-based; conditions: for Emax: CHO-K1, efficacy (SPAN) normalized to fingolimod, read-out: hS1P1 B-arrestin2 SPAN
How it was run: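 Enzyme-fragment complementation read-out: agonist-driven β-arrestin2 binding to ProLink-tagged human S1P1 in stable CHO-K1 cells restores β-galactosidase, measured 1 h at room temperature after a 60 min 37° C. compound incubation. Potency as pEC50, efficacy relative to fingolimod (SPAN).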
Target sequence in this assay (P21453 whole entry, looked up, the tested form may be a part): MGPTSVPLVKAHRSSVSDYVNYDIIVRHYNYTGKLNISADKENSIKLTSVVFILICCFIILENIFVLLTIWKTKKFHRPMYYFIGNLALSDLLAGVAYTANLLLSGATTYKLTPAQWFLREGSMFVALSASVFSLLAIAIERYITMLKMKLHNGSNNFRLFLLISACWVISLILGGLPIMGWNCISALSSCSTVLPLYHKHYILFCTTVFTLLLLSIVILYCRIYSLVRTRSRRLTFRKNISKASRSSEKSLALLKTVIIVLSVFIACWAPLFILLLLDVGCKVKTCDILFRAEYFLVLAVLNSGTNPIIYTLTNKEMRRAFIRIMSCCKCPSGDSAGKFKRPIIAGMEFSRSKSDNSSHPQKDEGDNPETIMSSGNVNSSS
Target sequence in this assay (P32121 whole entry partner, looked up, the tested form may be a part): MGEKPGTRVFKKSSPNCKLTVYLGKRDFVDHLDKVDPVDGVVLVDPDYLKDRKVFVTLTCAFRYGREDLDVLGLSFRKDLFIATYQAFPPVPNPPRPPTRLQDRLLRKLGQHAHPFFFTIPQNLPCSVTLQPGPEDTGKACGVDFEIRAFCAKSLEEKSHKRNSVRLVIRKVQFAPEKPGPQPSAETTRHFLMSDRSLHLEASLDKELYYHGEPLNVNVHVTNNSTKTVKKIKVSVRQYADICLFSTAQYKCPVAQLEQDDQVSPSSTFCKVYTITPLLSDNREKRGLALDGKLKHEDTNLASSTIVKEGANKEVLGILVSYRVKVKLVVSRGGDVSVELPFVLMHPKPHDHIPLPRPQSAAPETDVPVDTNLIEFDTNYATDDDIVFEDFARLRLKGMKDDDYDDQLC

[3] = molecular target: T1, human sphingosine-1-phosphate receptor 1 (S1P1); assay: Inhibition of cAMP production (HTRF cAMP HiRange), S1P1 CHO-K1 cells; assay type: cell-based; conditions: for Emax: CHO-K1, efficacy (SPAN) normalized to fingolimod, read-out: hS1P1 cAMP SPAN
How it was run: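 CHO-K1 cells stably co-expressing human S1P1 (C-terminal Prolink tag) and EA-β-arrestin2 were grown in AssayComplete Media 6 at 37° C. and 5% CO2, plated, and incubated overnight. Agonist-driven inhibition of intracellular cAMP was read by TR-FRET with the HTRF cAMP HiRange kit on a PheraStar reader. Potency is pEC50, and efficacy (SPAN) is normalized to fingolimod.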
Target sequence in this assay (P21453 whole entry, looked up, the tested form may be a part): as the sequence (P21453 whole entry, looked up, the tested form may be a part) above

[4] = β-arrestin2 recruitment, S1P1 CHO-K1 cells
[5] = inhibition of cAMP production, S1P1 CHO-K1 cells

Compound | hS1P1 B-arrestin2 pEC50 [2, 4] | hS1P1 cAMP pEC50 [3, 5] | Emax [2] | Emax [3] | EC50 ([2]; β-arrestin2 recruitment, S1P1 CHO-K1 cells, read-out: hS1P1 B-arrestin2 pEC50 (converted)) | EC50 ([3]; inhibition of cAMP production, S1P1 CHO-K1 cells, read-out: hS1P1 cAMP pEC50 (converted)) | inhibition in vivo at 1 mg/kg [1] | inhibition in vivo at 3 mg/kg [1]
CC(C)n1nnc2cc(-c3noc(-c4ccccc4C(F)(F)F)n3)ccc21 [Compound 33, 3-(1-isopropylbenzotriazol-5-yl)-5-[2-(trifluoromethyl)phenyl]-1,2,4-oxadiazole] | >5 | >6.5 | – | – | – | – | < 50% | –
Cc1ccccc1-c1noc(-c2ccc3c(c2)nnn3C2CCC2)n1 [Compound 306, 1-cyclobutyl-5-[3-(2-methylphenyl)-1,2,4-oxadiazol-5-yl]-1H-1,2,3-benzotriazole] | >5 | >6.5 | – | – | – | – | < 50% | –
Cc1nccnc1-c1nc(-c2ccc3c(c2)nnn3C(C)(C)CO)no1 [Compound 641, 2-methyl-2-(5-(5-(3-methylpyrazin-2-yl)-1,2,4-oxadiazol-3-yl)-1H-benzo[d][1,2,3]triazol-1-yl)propan-1-ol] | <5 | <6.5 | < 75% | < 75% | – | – | – | –
CC(C)(CO)n1nnc2cc(-c3noc(-c4cccnc4F)n3)ccc21 [Compound 643, 2-(5-(5-(2-fluoropyridin-3-yl)-1,2,4-oxadiazol-3-yl)-1H-benzo[d][1,2,3]triazol-1-yl)-2-methylpropan-1-ol] | <5 | <6.5 | < 75% | > 75% | – | – | – | –
CC(C)(CO)n1nnc2cc(-c3noc(-c4cnccc4C(F)(F)F)n3)ccc21 [Compound 644, 2-methyl-2-(5-(5-(4-(trifluoromethyl)pyridin-3-yl)-1,2,4-oxadiazol-3-yl)-1H-benzo[d][1,2,3]triazol-1-yl)propan-1-ol] | <5 | <6.5 | > 75% | > 75% | – | – | – | –
COc1ccc(-c2noc(-c3ccc4c(c3)nnn4CC(C)(C)O)n2)c(C)c1 [Compound 647, 1-{5-[3-(4-methoxy-2-methylphenyl)-1,2,4-oxadiazol-5-yl]-1H-1,2,3-benzotriazol-1-yl}-2-methylpropan-2-ol] | >5 | >6.5 | > 75% | > 75% | – | – | – | –
N#Cc1cc(-c2nc(-c3ccc4[nH]c(=O)oc4c3)no2)ccc1NCC1CC1 [Compound 726, 2-(cyclopropylmethylamino)-5-[3-(2-oxo-3H-1,3-benzoxazol-6-yl)-1,2,4-oxadiazol-5-yl]benzonitrile] | – | – | – | – | – | – | – | > 50%
N#Cc1cc(-c2nc(-c3ccc4c(c3)CNC4=O)no2)ccc1NCC1CC1 [Compound 727, 2-((cyclopropylmethyl)amino)-5-(3-(1-oxoisoindolin-5-yl)-1,2,4-oxadiazol-5-yl)benzonitrile] | – | – | – | – | – | – | – | > 50%
CC(C)Nc1ccc(-c2nc(-c3ccc4[nH]c(=O)[nH]c4c3)no2)cc1C#N [Compound 728, 2-(isopropylamino)-5-(3-(2-oxo-2,3-dihydro-1H-benzo[d]imidazol-5-yl)-1,2,4-oxadiazol-5-yl)benzonitrile] | – | – | – | – | – | – | – | > 50%
N#Cc1cc(-c2nc(-c3ccc4[nH]c(=O)[nH]c4c3)no2)ccc1NCC1CC1 [Compound 729, 2-((cyclopropylmethyl)amino)-5-(3-(2-oxo-2,3-dihydro-1H-benzo[d]imidazol-5-yl)-1,2,4-oxadiazol-5-yl)benzonitrile] | – | – | – | – | – | – | – | > 50%
N#Cc1cc(-c2nnc(-c3ccc4cnccc4c3)o2)ccc1NCC(F)F [Compound 733, 2-[(2,2-difluoroethyl)amino]-5-[5-(isoquinolin-6-yl)-1,3,4-oxadiazol-2-yl]benzonitrile] | – | – | – | – | – | – | – | > 50%
CC(C)Nc1ccc(-c2nnc(-c3ccc4cnccc4c3)o2)cc1C#N [Compound 735, 5-[5-(isoquinolin-6-yl)-1,3,4-oxadiazol-2-yl]-2-[(propan-2-yl)amino]benzonitrile] | – | – | – | – | – | – | – | < 50%
CC(C)Nc1ccc(-c2nnc(-c3ccc4ncccc4c3)o2)cc1C#N [Compound 736, 2-[(propan-2-yl)amino]-5-[5-(quinolin-6-yl)-1,3,4-oxadiazol-2-yl]benzonitrile] | – | – | – | – | – | – | – | > 50%

Continued, in another order:

hS1P1 B-arrestin2 pEC50 [2, 4] | hS1P1 cAMP pEC50 [3, 5] | Emax [2] | Emax [3] | EC50 ([2]; β-arrestin2 recruitment, S1P1 CHO-K1 cells, read-out: hS1P1 B-arrestin2 pEC50 (converted)) | EC50 ([3]; inhibition of cAMP production, S1P1 CHO-K1 cells, read-out: hS1P1 cAMP pEC50 (converted)) | Compound | inhibition in vivo at 1 mg/kg [1] | inhibition in vivo at 3 mg/kg [1]
>5 | >6.5 | > 75% | > 75% | – | – | CCC1(CC)CC(=O)c2cc(-c3nc(-c4ccc(S(N)(=O)=O)cc4)no3)ccc2O1 [Compound 106, 4-(5-(2,2-diethyl-4-oxochroman-6-yl)-1,2,4-oxadiazol-3-yl)benzenesulfonamide] | < 50% | –
>5 | >6.5 | > 75% | > 75% | – | – | CC(C)Nc1ccc(-c2nc(-c3ccc4c(c3)CC(=O)N4)no2)cc1C#N [Compound 107, 2-(isopropylamino)-5-(3-(2-oxoindolin-5-yl)-1,2,4-oxadiazol-5-yl)benzonitrile] | < 50% | –
>5 | >6.5 | > 75% | > 75% | – | – | CCC1(CC)CC(=O)c2cc(-c3nc(-c4ccc(C(N)=O)cc4)no3)ccc2O1 [Compound 179, 4-(5-(2,2-diethyl-4-oxochroman-6-yl)-1,2,4-oxadiazol-3-yl)benzamide] | > 50% | > 50%
>5 | >6.5 | > 75% | > 75% | – | – | N#Cc1cc(-c2nc(-c3ccc4c(c3)CC(=O)N4)no2)ccc1NCC1CC1 [Compound 210, 2-((cyclopropylmethyl)amino)-5-(3-(2-oxoindolin-5-yl)-1,2,4-oxadiazol-5-yl)benzonitrile] | < 50% | –
>5 | >6.5 | > 75% | > 75% | – | – | C=CCNc1ccc(-c2nc(-c3ccc4c(c3)CC(=O)N4)no2)cc1C#N [Compound 224, 2-(allylamino)-5-(3-(2-oxoindolin-5-yl)-1,2,4-oxadiazol-5-yl)benzonitrile] | > 50% | –
<5 | <6.5 | – | – | – | – | CCC1(CC)CC(=O)c2cc(-c3nc(-c4ccc5c(c4)nnn5C(C)C)no3)ccc2O1 [Compound 305, 2,2-diethyl-6-(3-(1-isopropyl-1H-benzo[d][1,2,3]triazol-5-yl)-1,2,4-oxadiazol-5-yl)chroman-4-one] | > 50% | –
>5 | >6.5 | > 75% | > 75% | – | – | CC(F)CNc1ccc(-c2nc(-c3ccc4c(c3)CCC(=O)N4)no2)cc1C#N (stereo not shown) [Compound 348, 2-[(2-fluoropropyl)amino]-5-[3-(2-oxo-1,2,3,4-tetrahydroquinolin-6-yl)-1,2,4-oxadiazol-5-yl]benzonitrile] | – | > 50%
<5 | <6.5 | – | – | – | – | CCC1(CC)CC(=O)c2cc(-c3nc(-c4ncccn4)no3)ccc2O1 [Compound 640, 2,2-diethyl-6-(3-(pyrimidin-2-yl)-1,2,4-oxadiazol-5-yl)chroman-4-one] | – | –
<5 | <6.5 | – | – | – | – | CC(C)(CO)n1nnc2cc(-c3noc(-c4ccc5nc[nH]c5c4)n3)ccc21 [Compound 642, 2-(5-(5-(1H-benzo[d]imidazol-6-yl)-1,2,4-oxadiazol-3-yl)-1H-benzo[d][1,2,3]triazol-1-yl)-2-methylpropan-1-ol] | – | –
<5 | <6.5 | – | – | – | – | O=C1CNc2ccc(-c3nc(-c4cn[nH]c4)no3)cc2N1 [Compound 645, 7-[3-(1H-pyrazol-4-yl)-1,2,4-oxadiazol-5-yl]-1,2,3,4-tetrahydroquinoxalin-2-one] | – | –
– | – | > 75% | < 75% | > 10 µM | > 0.316 µM | CC(C)n1nnc2cc(-c3nc(-c4cn[nH]c4)no3)ccc21 [Compound 646, 1-(propan-2-yl)-5-[3-(1H-pyrazol-4-yl)-1,2,4-oxadiazol-5-yl]-1H-1,2,3-benzotriazole] | – | –

— US11912693B2, “Compounds for modulating S1P1 activity and methods of using the same” (TREVENA, INC., priority 2017, dated 2024)
